{"source": "patent US20020018778A1", "about": "“Passive desensitization” (priority 1999, published 2002)", "data": [{"test_system": "serum IgE from mice sensitized to recombinant Ara h 2", "assay": "IgE immunoblot mapping of murine IgE binding epitopes in Ara h 2", "settings": "mouse Ara h 2 epitopes; densitometric analysis of the blot", "experimental": "(§1) IGE IMMUNOBLOT ANALYSIS: Membranes to be blotted were prepared either by SDS-PAGE (performed by the method of Laemmli Nature 227:680-685, 1970; incorporated herein by reference) of digested peanut antigen or by synthesis of antigen peptides on a derivativized cellulose membrane. SDS-PAGE gels were composed of 10% acrylamide resolving gel and 4% acrylamide stacking gel. Electrophoretic transfer and immunoblotting on nitrocellulose paper was performed by the procedures of Towbin (Proc. Natl. Acad. Sci. USA 76:4350-4354, 1979; incorporated herein by reference).\nFor mapping of murine IgE binding sites, a blot containing overlapping 13 mer peptides, offset by 2 amino acids, was incubated with serum from peanut sensitized mice as described in U.S. patent application Ser. No. 09/455,294, filed Dec. 6, 1999; incorporated herein by reference.\nPEPTIDE SYNTHESIS: Individual peptides were synthesized on a derivativized cellulose membrane using Fmoc amino acid active esters according to the manufacturer's instructions (Genosys Biotechnologies, Woodlands, Tex.). Fmoc-amino acid derivatives were dissolved in 1-methyl-2-pyrrolidone and loaded on marked spots on the membrane. Coupling reactions were followed by acetylation with a solution of 4% (v/v) acetic anhydride in N,N-dimethyl formamide (DMF). After acetylation, Fmoc groups were removed by incubation of the membrane in 20% (v/v) piperdine in DMF. […]", "values": [{"sequence": "RCQSQLERA [mouse Ara h 2 epitope (3)]", "contribution to the observed IgE reactivity, single epitope": "about 15%"}]}, {"test_system": "T cell preparations", "assay": "T cell stimulation by 5/20 native Ara h 2 peptides", "type": "cell-based, human", "settings": "analysis of 15 patients", "experimental": "Each peptide was tested, using standard techniques, on 19 different T cell preparations. Positive scores, defined as a T cell stimulation index of >2, are indicated by shading.\nEach of these peptides was tested for its ability to stimulate T cells. Each peptide was tested, using standard techniques, on 19 different T cell preparations. Positive scores, defined as a T cell stimulation index of >2, are indicated by shading.\nAs discussed herein, it may sometimes be desirable to prepare blocking agent compositions comprising antigen fragments (e.g., IgE binding site and one or more T cell epitopes).", "values": [{"sequence": "PCEQHLMQKIQRDEDSYERD [Peptide 9]", "single IgE site and T cell epitope in the same peptide": "both a single IgE site and a T cell epitope recognized by at least one person"}, {"sequence": "ALALFLLAAHASARQQWELQ [Peptide 2]", "single IgE site and T cell epitope in the same peptide": "both a single IgE site and a T cell epitope recognized by at least one person"}, {"sequence": "LTILVALALFLLAAHASARQ [Peptide 1]", "single IgE site and T cell epitope in the same peptide": "both a single IgE site and a T cell epitope recognized by at least one person"}, {"sequence": "LMQKIQRDEDSYERDPYSPS [Peptide 10]", "single IgE site and T cell epitope in the same peptide": "both a single IgE site and a T cell epitope recognized by at least one person"}, {"sequence": "RANLRPCEQHLMQKIQRDED [Peptide 8]", "single IgE site and T cell epitope in the same peptide": "both a single IgE site and a T cell epitope recognized by at least one person"}, {"sequence": "LLAAHASARQQWELQGDRRC [Peptide 3]", "single IgE site and T cell epitope in the same peptide": "both a single IgE site and a T cell epitope recognized by at least one person"}]}, {"test_system": "serum IgE from patients with documented peanut hypersensitivity", "assay": "IgE immunoblot mapping of human IgE binding epitopes on synthesized peanut antigen peptides", "settings": "Ara h 3 epitope; 10 patients tested", "experimental": "as §1\n(§2) […] […] At least 5 ml of venous blood was drawn from each patient and allowed to clot, and the serum was collected. All studies were approved by the Human Use Advisory Committee at the University of Arkansas for Medical Sciences. Serum was diluted in a solution containing TBS and 1% bovine serum albumin and incubated with antigen for at least 12 h at 4° C. or for 2 h at room temperature. The bound primary antibody was detected with ^125I-labeled anti-IgE antibody (Sanofi Diagnostics Pasteur Inc., Paris, France).\n(§3) PEPTIDE SYNTHESIS: Individual peptides were synthesized on a derivativized cellulose membrane using Fmoc amino acid active esters according to the manufacturer's instructions (Genosys Biotechnologies, Woodlands, Tex.). Fmoc-amino acid derivatives were dissolved in 1-methyl-2-pyrrolidone and loaded on marked spots on the membrane. Coupling reactions were followed by acetylation with a solution of 4% (v/v) acetic anhydride in N,N-dimethyl formamide (DMF). After acetylation, Fmoc groups were removed by incubation of the membrane in 20% (v/v) piperdine in DMF. The membrane was then stained with bromophenol blue to identify the location of the free amino groups. Cycles of coupling, blocking, and deprotection were repeated until the peptides of the desired length were synthesized. After addition of the last amino acid in the peptide, the amino acid side chains were deprotected using a solution of dichloromethane/trifluoroacetic acid/triusobutylsilante (1/10/0.05). Membranes were either probed immediately or stored at −20° C. until needed.", "values": [{"sequence": "VTVRGGLRTLSPDRK [Ara h 3 epitope 3]", "patients whose serum IgE recognized the epitope": 10}]}, {"test_system": "serum IgE from patients with documented peanut hypersensitivity", "assay": "IgE immunoblot mapping of human IgE binding epitopes on synthesized peanut antigen peptides", "settings": "human IgE binding epitopes in Ara h 3", "experimental": "as §1, §2, §3", "values": [{"sequence": "IETWNPNNQEFECAG [Ara h 3 epitope 1]", "FRACTION OF PATIENTS WITH IGE THAT BIND": "1 (25%)"}, {"sequence": "VTVRGGLRTLSPDRK [Ara h 3 epitope 3]", "FRACTION OF PATIENTS WITH IGE THAT BIND": "3 (100%)"}, {"sequence": "DEDEYEYDEEDRRRG [Ara h 3 epitope 4]", "FRACTION OF PATIENTS WITH IGE THAT BIND": "4 (38%)"}, {"sequence": "GNIFSGFTPEFLEQA [Ara h 3 epitope 2]", "FRACTION OF PATIENTS WITH IGE THAT BIND": "2 (38%)"}]}]}
